Laboratory results reported in patent US20190099404A1, “ANALGESIC COMPOUNDS” (ZENO ROYALTIES & MILESTONES, LLC, priority 2016, published 2019).

Test system: male ICR mice
Experiment: Formalin Paw Test
Assay type: in vivo
Details: 30 mg/kg, intraperitoneal, given 10 minutes before formalin; for Early Phase: early/acute phase (0-10 minutes) after 2% formalin in hind paw; for Late Phase: late/tonic phase (10-35 minutes) after 2% formalin in hind paw
Procedure: One test compound or the vehicle was administered to each mouse in each test group (8 mice per group). Non-fasted male ICR mice weighing 23±3 g were used. Test compounds were administered at a concentration of 30 mg/kg; morphine was administered at a concentration of 10 mg/kg; and acetaminophen was administered at a concentration of >100 mg/kg. The control group received the vehicle (5% DMSO/15% PEG400/10% HPbCD/0.9% Saline). After 10 minutes, a 2% formalin solution (0.02 mL) was injected into one hind paw (sub-plantar) of each mouse. Responses were measured every 5 minutes after the formalin injection for 35 minutes.
The results in Table A are for intraperitoneal administration. In Table A, ‘A’ designates <70 licks/sec, ‘B’ designates ≥70 licks/sec and <165 licks/sec, and ‘C’ designates ≥165 licks/sec.

SMILES | Early Phase | Late Phase
NCCc1nc2ccc(F)cc2[nH]1 [Compound 7] | B (‘B’ designates ≥70 licks/sec and <165 licks/sec) | A (‘A’ designates <70 licks/sec)
Cn1ncc2cc(N)ccc21 [Compound 2] | A (‘A’ designates <70 licks/sec) | B (‘B’ designates ≥70 licks/sec and <165 licks/sec)
NCc1cc2ccccn2n1 [Compound 3] | A (‘A’ designates <70 licks/sec) | C (‘C’ designates ≥165 licks/sec)
Nc1nc2ccc(C(F)(F)F)cc2s1 [Compound 6] | A (‘A’ designates <70 licks/sec) | A (‘A’ designates <70 licks/sec)
CC(C)(C)c1ccc2nc(N)sc2c1 [Compound 10] | A (‘A’ designates <70 licks/sec) | A (‘A’ designates <70 licks/sec)
NCc1nc2cc(F)ccc2[nH]1 [Compound 9] | A (‘A’ designates <70 licks/sec) | A (‘A’ designates <70 licks/sec)
NCc1nc2cc(C(F)(F)F)ccc2s1 [Compound 5] | A (‘A’ designates <70 licks/sec) | A (‘A’ designates <70 licks/sec)
NCc1ccc2cncn2c1 [Compound 11] | B (‘B’ designates ≥70 licks/sec and <165 licks/sec) | C (‘C’ designates ≥165 licks/sec)
NCc1cc2cc(F)ccc2[nH]1 [Compound 4] | A (‘A’ designates <70 licks/sec) | A (‘A’ designates <70 licks/sec)
Nc1ccc2[nH]cnc2c1 [Compound 1] | B (‘B’ designates ≥70 licks/sec and <165 licks/sec) | C (‘C’ designates ≥165 licks/sec)
